According to PubChem BioAssay AID2060900 (Molecular Pharmacology Branch, DTP, NCI, 2025):
Each block holds one compound with its values, some of them ahead of it.

System: 521955-158-R2-J5-PDC complex spheroids, viability
Experiment: Anticancer human tumor 521955-158-R2-J5-PDC patient-derived pancreatic carcinoma cell line growth inhibition [RAS]
Conditions: for IC50: curve of first compound; for viability, T/C: stronger effect = lower value
Source text: RAS pathway inhibitors in Combinations in Complex Spheroids
A high-throughput screen of multi-cell type tumor spheroids was designed to identify active combinations of RAS pathway inhibitors and targeted small molecules. Complex spheroids include a stromal component modeled by human endothelial cells (HUVEC) and fibroblasts modeled by human mesenchymal stem cells (MSCs). The concentration ranges selected for each drug and investigational agent were based upon clinically achievable concentrations if the clinical Cmax of the agent was known.
Compounds. The drugs and investigational agents: abemaciclib (NSC768073), cobimetinib (NSC768068), divarasib (GDC6063, NSC841802), docetaxel (NSC628503), GDC-1971 (RLY-1971, NSC841576), gemcitabine (NSC613327), inavolisib (NSC800729), ipatasertib (NSC767898), KB-0742 (NSC834161), MRTX-1133 (NSC836407), osimertinib (NSC779217), RMC-4630 (NSC839698), RMC-6236 (NSC851965), RMC-6291 (NSC852671), Ro-3306 (NSC812927), sapanisertib (NSC764658), SN-38 (NSC673596), staurosporine (NSC755774), SY5609 (NSC837396), and tovorafenib (DAY101, NSC766906), were obtained from the National Cancer Institute (NCI) Developmental Therapeutics Program Chemical Repository. The FDA-approved anticancer drug set is available from the NCI Developmental Therapeutics Program. […] The stock solutions were prepared in dimethyl sulfoxide (DMSO, Sigma-Aldrich, St. Louis, MO, cat. D2650) at 800-fold the tested concentration and stored at -70 degrees C prior to their use. All drugs and investigational agents were tested over a range starting from a high concentration at or near the clinical Cmax and decreasing in half-log increments. If the clinical Cmax for an agent had not been determined, the highest concentration tested was 10 microM.
Cell Culture. All cells were maintained in an incubator at 37 degrees C and 5% CO2 with 95% humidity. The PDC lines were cultured according to standard operating procedures established by the NCI PDMR. All PDCs were thawed and cultured in Matrigel-coated flasks prepared with a working solution of 1X Ham's F-12 nutrient mix, without supplementation (Invitrogen, Waltham, MA, cat. 11765054), 100 U/mL penicillin-streptomycin (Invitrogen, cat. 15140122), and 2.5% Matrigel (Corning Inc., Corning, NY, cat. 354248) for the first three passages. The 362531-283-R-J2-PDC and 782815-120-R-J1-PDC lines were cultured in 6C/Colon 1B media, which includes advanced DMEM/F-12 (Thermo Fisher Scientific, cat. 12634028), 10 mM HEPES (Thermo Fisher Scientific, cat. 15630080), 1X GlutaMAX supplement (Thermo Fisher Scientific, cat. 35050061), 0.1 mg/mL primocin (InvivoGen, San Diego, CA, cat. ant-pm-2), 10% defined fetal bovine serum, heat inactivated (HyClone Laboratories Inc., Logan, UT, cat. SH30070.03HI), 50% L-WRN conditioned media (ATCC, cat. CRL-3276), 1.25 mM N-Acetyl-L-cysteine (Sigma-Aldrich, cat. A9165), 10 mM nicotinamide (Sigma-Aldrich, cat. N0636), 1X B-27 supplement (Thermo Fisher Scientific, cat. 17504044), 1X N-2 supplement (Thermo Fisher Scientific, cat. 17502048), 50 ng/mL human EGF (Thermo Fisher Scientific, cat. PHG0311), and 10 microM Y-27632 dihydrochloride (Tocris Bioscience, cat. 1254). The K12877-001-R-J1-PDC line was cultured in 6I media, which includes all 6C/Colon 1B media plus 10 ng/mL human FGF-10 (PeproTech, cat. 100-26), 1 ng/mL human FGF-2 (PeproTech, cat. 100-18B), 1 µM prostaglandin E2 (Tocris Bioscience, cat. 2296), […] hydrocortisone (Sigma-Aldrich, cat. H4001), and […] bovine insulin (Sigma-Aldrich, cat. I6634). The K86415-001-R-J1-PDC line was cultured in 6D media, which includes all 6C/Colon 1B media components minus the L-WRN conditioned media. The 485176-168-R4-J1-PDC was cultured in PANC media, which includes all 6C/Colon 1B media plus 100 ng/mL human FGF-10 (PeproTech, cat. 100-26), 500 nM SB-431542 (Selleckchem, cat. S1067), and 10 nM gastrin (Tocris Bioscience, cat. 3006). […]

[1] = second compound 0.0316 µM, first compound 0.0316 µM
[2] = second compound 0.0316 µM, first compound 0.1 µM
[3] = second compound 0.0316 µM, first compound 0.316 µM
[4] = second compound 0.0316 µM, first compound 1 µM
[5] = second compound 0.0316 µM, first compound 3.16 µM
[6] = second compound 0.0316 µM, first compound 10 µM
[7] = second compound 0.1 µM, first compound 0.0316 µM
[8] = second compound 0.1 µM, first compound 0.1 µM
[9] = second compound 0.1 µM, first compound 0.316 µM
[10] = second compound 0.1 µM, first compound 1 µM
[11] = second compound 0.1 µM, first compound 3.16 µM
[12] = second compound 0.1 µM, first compound 10 µM
[13] = second compound 0.316 µM, first compound 0.0316 µM
[14] = second compound 0.316 µM, first compound 0.1 µM
[15] = second compound 0.316 µM, first compound 0.316 µM
[16] = second compound 0.316 µM, first compound 1 µM
[17] = second compound 0.316 µM, first compound 3.16 µM
[18] = second compound 0.316 µM, first compound 10 µM
[19] = second compound 1 µM, first compound 0.0316 µM
[20] = second compound 1 µM, first compound 0.1 µM
[21] = second compound 1 µM, first compound 0.316 µM
[22] = second compound 1 µM, first compound 1 µM
[23] = second compound 1 µM, first compound 3.16 µM
[24] = second compound 1 µM, first compound 10 µM
[25] = second compound 3.16 µM, first compound 0.0316 µM
[26] = second compound 3.16 µM, first compound 0.1 µM
[27] = second compound 3.16 µM, first compound 0.316 µM
[28] = second compound 3.16 µM, first compound 1 µM
[29] = second compound 3.16 µM, first compound 3.16 µM
[30] = second compound 3.16 µM, first compound 10 µM
[31] = second compound 10 µM, first compound 0.0316 µM
[32] = second compound 10 µM, first compound 0.1 µM
[33] = second compound 10 µM, first compound 0.316 µM
[34] = second compound 10 µM, first compound 1 µM
[35] = second compound 10 µM, first compound 3.16 µM
[36] = second compound 10 µM, first compound 10 µM
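Further: compound exposure lasted seven days before the viability read.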
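Wherever viability, T/C is given: spheroids also contain HUVEC endothelial cells and mesenchymal stem cells as stroma.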

- IC50 (second compound 0.0316 µM): 0.598 µM
- IC50 (second compound 0.1 µM): 0.177 µM
- IC50 (second compound 0.316 µM): 0.115 µM
- IC50 (second compound 1 µM): < 0.0316 µM
- IC50 (second compound 3.16 µM): < 0.0316 µM
- IC50 (second compound 10 µM): < 0.0316 µM
SMILES: Cc1nc(N2CCC3(CC2)COC(C)C3N)c(CO)nc1Sc1ccnc(N)c1Cl (stereo unspecified) + C#Cc1c(F)ccc2cc(O)cc(-c3ncc4c(N5CC6CCC(C5)N6)nc(OCC56CCCN5CC(F)C6)nc4c3F)c12
- viability, T/C [1]: 50.1%
- viability, T/C [2]: 63.7%
- viability, T/C [3]: 60.6%
- viability, T/C [4]: 43.5%
- viability, T/C [5]: 42.3%
- viability, T/C [6]: 37.4%
- viability, T/C [7]: 61.1%
- viability, T/C [8]: 58.3%
- viability, T/C [9]: 41.9%
- viability, T/C [10]: 37.6%
- viability, T/C [11]: 39.7%
- viability, T/C [12]: 28.2%
- viability, T/C [13]: 63.1%
- viability, T/C [14]: 46.2%
- viability, T/C [15]: 44.1%
- viability, T/C [16]: 37.7%
- viability, T/C [17]: 27.2%
- viability, T/C [18]: 24%
- viability, T/C [19]: 45.3%
- viability, T/C [20]: 42.9%
- viability, T/C [21]: 39.3%
- viability, T/C [22]: 30.7%
- viability, T/C [23]: 33.2%
- viability, T/C [24]: 22.9%
- viability, T/C [25]: 37.1%
- viability, T/C [26]: 39.7%
- viability, T/C [27]: 34.4%
- viability, T/C [28]: 28.3%
- viability, T/C [29]: 19%
- viability, T/C [30]: 20.1%
- viability, T/C [31]: 48.7%
- viability, T/C [32]: 28.2%
- viability, T/C [33]: 21.3%
- viability, T/C [34]: 18.5%
- viability, T/C [35]: 13.7%
- viability, T/C [36]: 5%

- IC50 (second compound 0.0316 µM): < 0.0316 µM
- IC50 (second compound 0.1 µM): 0.0352 µM
- IC50 (second compound 0.316 µM): < 0.0316 µM
- IC50 (second compound 1 µM): < 0.0316 µM
- IC50 (second compound 3.16 µM): < 0.0316 µM
- IC50 (second compound 10 µM): < 0.0316 µM
SMILES: NC1c2ccccc2OC12CCN(c1cnc3c(N4CCCc5ncccc54)n[nH]c3n1)CC2 (stereo unspecified) + C#Cc1c(F)ccc2cc(O)cc(-c3ncc4c(N5CC6CCC(C5)N6)nc(OCC56CCCN5CC(F)C6)nc4c3F)c12
- viability, T/C [1]: 49.8%
- viability, T/C [2]: 38.6%
- viability, T/C [3]: 32.1%
- viability, T/C [4]: 19.2%
- viability, T/C [5]: 16.3%
- viability, T/C [6]: 9.96%
- viability, T/C [7]: 50.6%
- viability, T/C [8]: 42.4%
- viability, T/C [9]: 26.2%
- viability, T/C [10]: 16.9%
- viability, T/C [11]: 14.2%
- viability, T/C [12]: 10.4%
- viability, T/C [13]: 44%
- viability, T/C [14]: 35.5%
- viability, T/C [15]: 21.9%
- viability, T/C [16]: 12.9%
- viability, T/C [17]: 12.2%
- viability, T/C [18]: 7.43%
- viability, T/C [19]: 35%
- viability, T/C [20]: 31.7%
- viability, T/C [21]: 23.9%
- viability, T/C [22]: 13.1%
- viability, T/C [23]: 12.5%
- viability, T/C [24]: 8.41%
- viability, T/C [25]: 32.1%
- viability, T/C [26]: 25.3%
- viability, T/C [27]: 17.8%
- viability, T/C [28]: 11.1%
- viability, T/C [29]: 5.56%
- viability, T/C [30]: 3.9%
- viability, T/C [31]: 21.3%
- viability, T/C [32]: 16%
- viability, T/C [33]: 5.5%
- viability, T/C [34]: 4.22%
- viability, T/C [35]: 3.21%
- viability, T/C [36]: 1.47%

- IC50 (second compound 0.0316 µM): < 0.00316 µM
- IC50 (second compound 0.1 µM): < 0.00316 µM
- IC50 (second compound 0.316 µM): < 0.00316 µM
- IC50 (second compound 1 µM): 0.00368 µM
- IC50 (second compound 3.16 µM): < 0.00316 µM
- IC50 (second compound 10 µM): < 0.00316 µM
SMILES: Nc1ccn(C2OC(CO)C(O)C2(F)F)c(=O)n1 (stereo unspecified) + C#Cc1c(F)ccc2cc(O)cc(-c3ncc4c(N5CC6CCC(C5)N6)nc(OCC56CCCN5CC(F)C6)nc4c3F)c12
- viability, T/C (second compound 0.0316 µM, first compound 0.00316 µM): 48.8%
- viability, T/C (second compound 0.0316 µM, first compound 0.01 µM): 39.5%
- viability, T/C [1]: 32.6%
- viability, T/C [2]: 24.9%
- viability, T/C [3]: 24.1%
- viability, T/C [4]: 18.5%
- viability, T/C (second compound 0.1 µM, first compound 0.00316 µM): 44.5%
- viability, T/C (second compound 0.1 µM, first compound 0.01 µM): 44.9%
- viability, T/C [7]: 28.8%
- viability, T/C [8]: 20.9%
- viability, T/C [9]: 21%
- viability, T/C [10]: 15.4%
- viability, T/C (second compound 0.316 µM, first compound 0.00316 µM): 43.3%
- viability, T/C (second compound 0.316 µM, first compound 0.01 µM): 42.9%
- viability, T/C [13]: 28.8%
- viability, T/C [14]: 23.4%
- viability, T/C [15]: 17.4%
- viability, T/C [16]: 17.8%
- viability, T/C (second compound 1 µM, first compound 0.00316 µM): 52.4%
- viability, T/C (second compound 1 µM, first compound 0.01 µM): 34.6%
- viability, T/C [19]: 27.7%
- viability, T/C [20]: 16.4%
- viability, T/C [21]: 15.3%
- viability, T/C [22]: 14%
- viability, T/C (second compound 3.16 µM, first compound 0.00316 µM): 48.5%
- viability, T/C (second compound 3.16 µM, first compound 0.01 µM): 41.6%
- viability, T/C [25]: 27.5%
- viability, T/C [26]: 20.8%
- viability, T/C [27]: 15%
- viability, T/C [28]: 13%
- viability, T/C (second compound 10 µM, first compound 0.00316 µM): 35.9%
- viability, T/C (second compound 10 µM, first compound 0.01 µM): 32.7%
- viability, T/C [31]: 20.8%
- viability, T/C [32]: 20.4%
- viability, T/C [33]: 13.4%
- viability, T/C [34]: 9.08%
